{"source": "patent US6843979B2", "about": "“4-haloethenylphenyl tropane:serotonin transporter imaging agents” (Emory University, priority 1999, dated 2005)", "key": {"human SERT": {"biological_target": "T1, human SERT (Homo sapiens, UniProt P31645)", "T1 construct": "expressed in transfected cells", "T1 sequence (P31645 whole entry)": "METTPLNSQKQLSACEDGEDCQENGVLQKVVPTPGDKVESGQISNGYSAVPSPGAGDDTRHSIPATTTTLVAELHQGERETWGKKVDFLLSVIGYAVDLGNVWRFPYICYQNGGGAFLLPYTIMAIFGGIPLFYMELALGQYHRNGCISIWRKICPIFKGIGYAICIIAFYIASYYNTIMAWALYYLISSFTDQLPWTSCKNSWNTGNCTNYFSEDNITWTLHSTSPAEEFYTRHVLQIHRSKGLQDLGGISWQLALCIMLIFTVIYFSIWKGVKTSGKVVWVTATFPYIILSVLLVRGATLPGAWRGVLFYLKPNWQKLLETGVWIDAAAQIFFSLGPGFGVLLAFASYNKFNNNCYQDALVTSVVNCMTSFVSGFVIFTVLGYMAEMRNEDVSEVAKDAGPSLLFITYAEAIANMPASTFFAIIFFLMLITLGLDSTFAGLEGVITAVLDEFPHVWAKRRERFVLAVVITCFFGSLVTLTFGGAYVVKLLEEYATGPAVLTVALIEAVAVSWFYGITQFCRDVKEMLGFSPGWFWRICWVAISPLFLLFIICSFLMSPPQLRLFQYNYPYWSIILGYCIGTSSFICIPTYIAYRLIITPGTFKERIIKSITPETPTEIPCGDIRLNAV", "assay": "Binding site competition, cells stably transfected with human SERT, [3H]citalopram", "settings": "for Ki / SERT Ki: [3H]citalopram, transfected cell lines; for DAT/SERT selectivity / NET/SERT selectivity: ratio of Ki"}, "human DAT": {"biological_target": "T2, human DAT (Homo sapiens, UniProt Q01959)", "T2 construct": "expressed in transfected cells", "T2 sequence (Q01959 whole entry)": "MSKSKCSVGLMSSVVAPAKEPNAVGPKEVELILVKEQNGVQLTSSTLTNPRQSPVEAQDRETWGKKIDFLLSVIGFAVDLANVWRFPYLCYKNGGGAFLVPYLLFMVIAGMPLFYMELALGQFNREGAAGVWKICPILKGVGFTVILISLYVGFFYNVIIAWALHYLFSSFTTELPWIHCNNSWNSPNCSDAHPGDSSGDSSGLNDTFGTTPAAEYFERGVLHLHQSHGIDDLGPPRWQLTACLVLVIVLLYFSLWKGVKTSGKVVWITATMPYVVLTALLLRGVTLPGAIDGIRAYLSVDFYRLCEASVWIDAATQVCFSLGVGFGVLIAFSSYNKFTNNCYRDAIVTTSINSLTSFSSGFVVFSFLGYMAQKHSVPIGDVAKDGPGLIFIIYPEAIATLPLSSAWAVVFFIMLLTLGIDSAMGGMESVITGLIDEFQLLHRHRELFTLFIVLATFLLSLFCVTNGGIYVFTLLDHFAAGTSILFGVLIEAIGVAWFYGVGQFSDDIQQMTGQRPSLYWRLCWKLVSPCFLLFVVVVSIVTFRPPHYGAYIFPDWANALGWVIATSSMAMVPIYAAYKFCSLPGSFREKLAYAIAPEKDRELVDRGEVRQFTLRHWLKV", "assay": "Binding site competition, cells stably transfected with human DAT, [3H]WIN 35,428", "settings": "[3H]WIN 35428, transfected cell lines"}, "human NET": {"biological_target": "T3, human NET (Homo sapiens, UniProt P23975)", "T3 construct": "expressed in transfected cells", "T3 sequence (P23975 whole entry)": "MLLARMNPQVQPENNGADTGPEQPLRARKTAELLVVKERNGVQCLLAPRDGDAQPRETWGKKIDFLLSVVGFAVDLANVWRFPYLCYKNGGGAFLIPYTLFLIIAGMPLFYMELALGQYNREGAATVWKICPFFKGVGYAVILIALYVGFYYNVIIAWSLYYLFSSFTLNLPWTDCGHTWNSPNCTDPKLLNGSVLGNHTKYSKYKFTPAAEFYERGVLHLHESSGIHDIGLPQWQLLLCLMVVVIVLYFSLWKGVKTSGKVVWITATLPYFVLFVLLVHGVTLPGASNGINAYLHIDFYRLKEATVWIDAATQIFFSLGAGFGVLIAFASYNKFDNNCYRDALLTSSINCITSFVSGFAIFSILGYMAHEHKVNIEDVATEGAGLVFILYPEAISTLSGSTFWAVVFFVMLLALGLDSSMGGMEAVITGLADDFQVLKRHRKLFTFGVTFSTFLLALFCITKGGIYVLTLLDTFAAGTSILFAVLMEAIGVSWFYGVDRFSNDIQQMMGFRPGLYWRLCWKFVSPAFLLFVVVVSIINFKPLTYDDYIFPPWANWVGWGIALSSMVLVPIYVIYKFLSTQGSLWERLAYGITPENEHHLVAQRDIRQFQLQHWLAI", "assay": "Binding site competition, cells stably transfected with human NET, [3H]nisoxetine", "settings": "transfected cell lines"}, "SERT": {"system": "SERT", "settings": "cited from earlier work"}, "[1]": {"biological_target": "T4, 5-HTT (serotonin transporter site) (Homo sapiens, UniProt P31645)", "T4 construct": "expressed in transfected cells", "T4 sequence (P31645 whole entry)": "as the sequence (P31645 whole entry) above", "assay": "Transporter affinity of N-alkyl ZIENT ligands in transfected cell lines, [3H]citalopram", "type": "binding", "text": "(§1) In order to determine whether any structural modifications of ZIENT, FEINT, and FEBrNT would still yield high selectivity and specificity for SERT similar to the results seen with ZIENT, FEINT, FEBrNT and FEClNT, various substitutions on the tropane nitrogen and the 2-beta carboxyester position were made and tested in in vitro binding studies.\n(§2) These studies provide a variety of new compounds which can be used as imaging agents for visualizing the location and density of serotonin transporter by PET or SPECT imaging."}, "[2]": {"biological_target": "T5, DAT (dopamine transporter site) (Homo sapiens, UniProt Q01959)", "T5 construct": "expressed in transfected cells", "T5 sequence (Q01959 whole entry)": "as the sequence (Q01959 whole entry) above", "assay": "Transporter affinity of N-alkyl ZIENT ligands in transfected cell lines, [125I]TRI-55", "type": "binding", "text": "as §1, §2"}, "[3]": {"biological_target": "T6, NET (norepinephrine transporter site) (Homo sapiens, UniProt P23975)", "T6 construct": "expressed in transfected cells", "T6 sequence (P23975 whole entry)": "as the sequence (P23975 whole entry) above", "assay": "Transporter affinity of N-alkyl ZIENT ligands in transfected cell lines, [3H]nisoxetine", "type": "binding", "text": "as §1, §2"}}, "note": "Several values for one entry are separate records, joined by “and”; a condition that tells them apart may be missing. Equal values may be shown once. Read-outs that look alike come from different tables or passages of the source."}
{"smiles": "COC(=O)[C@@H]1C2CCC(C[C@@H]1c1ccc(/C=C/I)cc1)N2", "note": "(some centres unmarked) [EINT]", "values": [{"measurement": "Ki", "setting": "human SERT", "value": 1.15, "unit": "nM"}, {"measurement": "Ki", "setting": "human DAT", "value": 1.88, "unit": "nM"}, {"measurement": "Ki", "setting": "human NET; read-out: NET Ki", "value": 32, "unit": "nM"}, {"measurement": "Selectivity for the SERT over the DAT", "setting": "SERT", "value": 500, "unit": "times"}, {"measurement": "IC50", "setting": "SERT; vs [3H]WIN 35428 (so in the source)", "value": 0.69, "unit": "nM"}]}
{"smiles": "COC(=O)C1C2CCC(CC1c1ccc(CCF)c(Br)c1)N2", "note": "(stereo not drawn) [FEBrNT, 2β-carbomethoxy-3β-(4-(2-fluoroethyl)-3-bromophenyl)nortropane]", "values": [{"measurement": "Ki", "setting": "human SERT", "value": "0.22 nM and 0.12 to 0.56 nM"}, {"measurement": "SERT Ki", "setting": "human SERT", "value": "subnanomolar"}, {"measurement": "DAT/SERT selectivity", "setting": "human SERT", "value": 100}, {"measurement": "NET/SERT selectivity", "setting": "human SERT", "value": 573}, {"measurement": "Ki", "setting": "human DAT", "value": "23.2 nM and 23 nM"}, {"measurement": "Ki", "setting": "human NET; NET Ki", "value": 126, "unit": "nM"}]}
{"smiles": "COC(=O)C1C2CCC(CC1c1ccc(CCF)c(Cl)c1)N2", "note": "(stereo not drawn) [FEClNT, 2β-carbomethoxy-3β-(4-(2-fluoroethyl)-3-chlorophenyl)nortropane]", "values": [{"measurement": "Ki", "setting": "human SERT", "value": "0.56 nM and 0.12 to 0.56 nM"}, {"measurement": "SERT Ki", "setting": "human SERT", "value": "subnanomolar"}, {"measurement": "DAT/SERT selectivity", "setting": "human SERT", "value": 48}, {"measurement": "NET/SERT selectivity", "setting": "human SERT", "value": 209}, {"measurement": "Ki", "setting": "human DAT", "value": 27, "unit": "nM"}, {"measurement": "Ki", "setting": "human NET; NET Ki", "value": 117, "unit": "nM"}]}
{"smiles": "COC(=O)C1C2CCC(CC1c1ccc(CCF)c(I)c1)N2", "note": "(stereo not drawn) [FEINT, 2β-carbomethoxy-3β-(4-(2-fluoroethyl)-3-iodophenyl)nortropane]", "values": [{"measurement": "Ki", "setting": "human SERT", "value": "0.1 nM and 0.12 to 0.56 nM"}, {"measurement": "SERT Ki", "setting": "human SERT", "value": "subnanomolar"}, {"measurement": "DAT/SERT selectivity", "setting": "human SERT", "value": "424 and 283"}, {"measurement": "NET/SERT selectivity", "setting": "human SERT", "value": 649}, {"measurement": "Ki", "setting": "human DAT", "value": "42.4 nM and 42 nM"}, {"measurement": "Ki", "setting": "human NET; NET Ki", "value": "64.9 nM and 65 nM"}]}
{"smiles": "COC(=O)C1C2CCC(CC1c1ccc(CCCF)c(I)c1)N2", "note": "(centres unmarked) [FPINT]", "values": [{"measurement": "SERT Ki", "setting": "human SERT", "value": "subnanomolar"}]}
{"smiles": "COC(=O)[C@H]1[C@@H](c2ccc(C(C)=CF)cc2)C[C@@H]2CC[C@H]1N2", "note": "[IPPNT]", "values": [{"measurement": "Ki", "setting": "human SERT", "value": 0.08, "unit": "nM"}, {"measurement": "SERT Ki", "setting": "human SERT", "value": "subnanomolar"}, {"measurement": "DAT/SERT selectivity", "setting": "human SERT", "value": 37}, {"measurement": "Ki", "setting": "human DAT", "value": 2.93, "unit": "nM"}, {"measurement": "Ki", "setting": "human NET; read-out: NET Ki", "value": 11.8, "unit": "nM"}]}
{"smiles": "COC(=O)C1C2CCC(CC1c1ccc(/C=C\\CF)cc1)N2", "note": "(stereo not drawn) [Ligand Z-3-FPNT, 2β-carbomethoxy-3β-(4′(Z-3-fluoropropenyl)phenyl)-nortropane]", "values": [{"measurement": "Ki", "setting": "human SERT", "value": 0.1, "unit": "nM"}, {"measurement": "DAT/SERT selectivity", "setting": "human SERT", "value": 116}, {"measurement": "Ki", "setting": "human DAT", "value": 11.6, "unit": "nM"}]}
{"smiles": "COC(=O)C1C(c2ccc(C=CI)cc2)CC2CCC1N2CCF", "note": "(centres unmarked) [N-fluoroethyl ZIENT]", "values": [{"measurement": "Ki", "setting": "[1]", "value": 1.28, "unit": "nM"}, {"measurement": "Ki", "setting": "[2]", "value": 27, "unit": "nM"}, {"measurement": "Ki", "setting": "[3]", "value": 21, "unit": "nM"}]}
{"smiles": "COC(=O)C1C(c2ccc(C=CI)cc2)CC2CCC1N2C", "note": "(centres unmarked) [N-methyl ZIENT]", "values": [{"measurement": "Ki", "setting": "[1]", "value": 0.48, "unit": "nM"}, {"measurement": "Ki", "setting": "[2]", "value": 33, "unit": "nM"}, {"measurement": "Ki", "setting": "[3]", "value": 69, "unit": "nM"}]}
{"smiles": "COC(=O)C1C2CCC(CC1c1ccc(I)cc1)N2", "note": "(stereo not drawn) [Nor-CIT, 2β-carbomethoxy-3β-(4-iodophenyl)nortropane, reference compound]", "values": [{"measurement": "Ki", "setting": "human SERT", "value": 0.12, "unit": "nM"}]}
{"smiles": "C=C(C)c1ccc(C2CC3CCC(N3)C2C(=O)OC)cc1", "note": "(stereo not drawn) [Nor-β-CIPPT, 2β-carbomethoxy-3β-(4′-isopropenylphenyl)nortropane]", "values": [{"measurement": "Selectivity for the SERT over the DAT", "setting": "SERT", "value": 38, "unit": "times"}, {"measurement": "IC50", "setting": "SERT; vs [3H]paroxetine", "value": 0.6, "unit": "nM"}]}
{"smiles": "COC(=O)C1C2CCC(CC1c1ccc(C=CI)cc1)N2", "note": "(centres unmarked) [ZIENT]", "values": [{"measurement": "Ki", "setting": "human SERT", "value": "0.031 nM and 0.03 to 0.1 nM and 0.05 nM"}, {"measurement": "SERT Ki", "setting": "human SERT", "value": "subnanomolar"}, {"measurement": "DAT/SERT selectivity", "setting": "human SERT", "value": "100 and 116"}, {"measurement": "NET/SERT selectivity", "setting": "human SERT", "value": 484}, {"measurement": "Ki", "setting": "human DAT", "value": 3.47, "unit": "nM"}, {"measurement": "Ki", "setting": "human NET; NET Ki", "value": 24, "unit": "nM"}, {"measurement": "Ki", "setting": "[1]", "value": 0.25, "unit": "nM"}, {"measurement": "Ki", "setting": "[2]", "value": 16, "unit": "nM"}, {"measurement": "Ki", "setting": "[3]", "value": 64, "unit": "nM"}]}
